The text below walks through data of patent US12459951B2, “Compounds that interact with RAS superfamily proteins for treatment of cancers, inflammatory diseases, rasopathies, and fibrotic disease” (SHY Therapeutics, LLC, priority 2022, dated 2025).

Where two headings read alike, the source gives them in different places.

For one experiment, the system named is Akt phosphorylation. Kind of experiment: Akt Phosphorylation Assay (western blot), Panc-1. Format: cell-based, human. The following applies: at 10 μM, * = activation. The procedure, abridged: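 Phospho-Akt (Ser473) was measured by western blot in lysates of KRas G12D Panc-1 cells exposed to test compound for 6 h at 37 °C, either at 10 μM final with 0.3% DMSO or as serial dilutions for IC50. One format used overnight 0.5% FBS starvation followed by a 15 min pulse of 1.5 ng/ml EGF. The other used cells in 10% FBS with no stimulation.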

Experiment [1] relates to MiaPaca-2 (expressing KRAS G12C mutant). Kind of experiment: Proliferation Assay (Cell Viability Assay). It is filed as cell-based. Conditions: Homo sapiens, MIA PaCa-2. The procedure, abridged: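 After 2–4 days' exposure at 37 °C, 5% CO2 to a single 10 μM final concentration or a dilution series (IC50), percent proliferation inhibition was derived from CellTiter 96 Aqueous One viability readings. The medium contained 0.3% DMSO and 10% FBS. KRAS G12C MiaPaca-2 cells were plated at 2000–5000/well the day before.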

Setting [2] is: read-out: Proliferation in MiaPaca-2: IC50.

Take `COCCO[C@H]1C[C@H](Nc2nc(-c3nccn3C)nn3cc(-c4ccn(C(C)C)n4)c(C)c23)C1` [Compound 92, 6-(1-Isopropyl-1H-pyrazol-3-yl)-N-((1r,3r)-3-(2-methoxyethoxy)cyclobutyl)-5-methyl-2-(1-methyl-1H-imidazol-2-yl)pyrrolo[2,1-f][1,2,4]triazin-4-amine]: the “% inh of Akt phosphorylation in Panc-1” value in the experiment with Akt phosphorylation is given as “A* (1-25% activation)”. The IC50 in experiment [1] (setting [2]) is more than 1000 nM.

As for `COCc1csc(Nc2nc(-c3nccn3C)nn3cc(-c4ccn(C(C)C)n4)c(C)c23)n1` [Compound 79, N-(6-(1-Isopropyl-1H-pyrazol-3-yl)-5-methyl-2-(1-methyl-1H-imidazol-2-yl)pyrrolo[2,1-f][1,2,4]triazin-4-yl)-4-(methoxymethyl)thiazol-2-amine], the “% inh of Akt phosphorylation in Panc-1” value in the experiment on Akt phosphorylation is reported as “D* (85-100% activation)”. The IC50 in experiment [1] (setting [2]) is less than 150 nM.

With `Cc1c(-c2ccn(C(C)C)n2)cn2nc(-c3nccn3C)nc(Nc3ccn(C4CC4)n3)c12` [Compound 84, N-(1-Cyclopropyl-1H-pyrazol-3-yl)-6-(1-isopropyl-1H-pyrazol-3-yl)-5-methyl-2-(1-methyl-1H-imidazol-2-yl)pyrrolo[2,1-f][1,2,4]triazin-4-amine], the “% inh of Akt phosphorylation in Panc-1” value in the experiment on Akt phosphorylation is reported as “D* (85-100% activation)”. Also, the IC50 in experiment [1] (Proliferation assay, MiaPaca-2, read-out: MiaPaca-2 IC50 (nM) Pancreatic) is 1 to 10 nM; in experiment [1] (setting [2]), less than 150 nM.

Regarding `COc1ncccc1Nc1nc(-c2nccn2C)nn2cc(-c3ccn(C(C)C)n3)c(C)c12` [Compound 85, 6-(1-Isopropyl-1H-pyrazol-3-yl)-N-(2-methoxypyridin-3-yl)-5-methyl-2-(1-methyl-1H-imidazol-2-yl)pyrrolo[2,1-f][1,2,4]triazin-4-amine], the “% inh of Akt phosphorylation in Panc-1” value with Akt phosphorylation is “D* (85-100% activation)”. Moreover, in experiment [1] (setting [2]), the IC50 was more than 1000 nM.

`COC[C@@H]1CC[C@@H]1CNc1nc(-c2nccn2C)nn2cc(-c3ccn(C(C)C)n3)c(-c3ccccc3)c12` (racemic) [Compound 20, rac 6-(1-Isopropyl-1H-pyrazol-3-yl)-N-(((1S,2R)-2-(methoxymethyl)cyclobutyl)methyl)-2-(1-methyl-1H-imidazol-2-yl)-5-phenylpyrrolo[2,1-f][1,2,4]triazin-4-amine]: in the experiment on Akt phosphorylation, the “% inh of Akt phosphorylation in Panc-1” value is reported as “D (85-100% inhibition)”. In experiment [1] (setting [2]), the IC50 is more than 1000 nM.

For the molecule `COC[C@@H]1CC[C@@H]1CNc1nc(-c2nccn2C)nn2cc(-c3ccn(C(C)C)n3)c(C)c12` (racemic) [Compound 3, rac 6-(1-Isopropyl-1H-pyrazol-3-yl)-N-(((1S,2R)-2-(methoxymethyl)cyclobutyl)methyl)-5-methyl-2-(1-methyl-1H-imidazol-2-yl)pyrrolo[2,1-f][1,2,4]triazin-4-amine], the “% inh of Akt phosphorylation in Panc-1” value in the experiment with Akt phosphorylation was “B (26-49% inhibition)”. Also, the IC50 in experiment [1] (setting [2]) was more than 1000 nM.

As for `COc1cccc(Nc2nc(-c3nccn3C)nn3cc(-c4ccn(C(C)C)n4)c(C)c23)n1` [Compound 7, 6-(1-Isopropyl-1H-pyrazol-3-yl)-N-(6-methoxypyridin-2-yl)-5-methyl-2-(1-methyl-1H-imidazol-2-yl)pyrrolo[2,1-f][1,2,4]triazin-4-amine], the “% inh of Akt phosphorylation in Panc-1” value in the experiment on Akt phosphorylation was 0 (0% inhibition). Also, the IC50 in experiment [1] (setting [2]) is more than 1000 nM.

`COc1ncc(Nc2nc(-c3nccn3C)nn3cc(-c4ccn(C(C)C)n4)c(C)c23)cn1` [Compound 80, 6-(1-Isopropyl-1H-pyrazol-3-yl)-N-(2-methoxypyrimidin-5-yl)-5-methyl-2-(1-methyl-1H-imidazol-2-yl)pyrrolo[2,1-f][1,2,4]triazin-4-amine]: in the experiment on Akt phosphorylation, the “% inh of Akt phosphorylation in Panc-1” value is given as “D* (85-100% activation)”. Further, in experiment [1] (setting [2]), the IC50 is more than 1000 nM.

As to `COc1nccc(Nc2nc(-c3nccn3C)nn3cc(-c4ccn(C(C)C)n4)c(C)c23)n1` [Compound 86, 6-(1-Isopropyl-1H-pyrazol-3-yl)-N-(2-methoxypyrimidin-4-yl)-5-methyl-2-(1-methyl-1H-imidazol-2-yl)pyrrolo[2,1-f][1,2,4]triazin-4-amine], in the experiment on Akt phosphorylation, the “% inh of Akt phosphorylation in Panc-1” value is given as “D* (85-100% activation)”. In addition, the IC50 in experiment [1] (setting [2]) was in the range of 150 to 500 nM.

Regarding `COC1CCCN(c2nc(-c3nccn3C)nn3cc(-c4ccn(C(C)C)n4)c(-c4ccccc4)c23)C1` (racemic) [Compound 21, rac 6-(1-Isopropyl-1H-pyrazol-3-yl)-4-(3-methoxypiperidin-1-yl)-2-(1-methyl-1H-imidazol-2-yl)-5-phenylpyrrolo[2,1-f][1,2,4]triazine], the “% inh of Akt phosphorylation in Panc-1” value in the experiment with Akt phosphorylation was “C* (46-84% activation)”. Moreover, in experiment [1] (setting [2]), the IC50 was more than 1000 nM.

As for `CO[C@H]1CC[C@@H](Nc2nc(-c3nccn3C)nn3cc(-c4ccn(C(C)C)n4)c(C)c23)C1` (racemic) [Compound 1, rac 6-(1-Isopropyl-1H-pyrazol-3-yl)-N-((1R,3S)-3-methoxycyclopentyl)-5-methyl-2-(1-methyl-1H-imidazol-2-yl)pyrrolo[2,1-f][1,2,4]triazin-4-amine], in the experiment with Akt phosphorylation, the “% inh of Akt phosphorylation in Panc-1” value was “C* (46-84% activation)”. For the same molecule, the IC50 in experiment [1] (setting [2]) is more than 1000 nM.

As to `COCc1noc(Nc2nc(-c3nccn3C)nn3cc(-c4ccn(C(C)C)n4)c(C)c23)n1` [Compound 82, N-(6-(1-Isopropyl-1H-pyrazol-3-yl)-5-methyl-2-(1-methyl-1H-imidazol-2-yl)pyrrolo[2,1-f][1,2,4]triazin-4-yl)-3-(methoxymethyl)-1,2,4-oxadiazol-5-amine], in the experiment with Akt phosphorylation, the “% inh of Akt phosphorylation in Panc-1” value was “D* (85-100% activation)”. Besides, the IC50 in experiment [1] (setting [2]) is less than 150 nM.

As for `CC(C)n1ccc(-c2cn3nc(-c4nccn4C)nc(O)c3c2-c2ccccc2)n1` [Compound 17, 6-(1-Isopropyl-1H-pyrazol-3-yl)-2-(1-methyl-1H-imidazol-2-yl)-5-phenylpyrrolo[2,1-f][1,2,4]triazin-4-ol], in the experiment on Akt phosphorylation, the “% inh of Akt phosphorylation in Panc-1” value is recorded as “D (85-100% inhibition)”. Besides, in experiment [1] (setting [2]), the IC50 is more than 1000 nM.

For the molecule `COc1cc(Nc2nc(-c3nccn3C)nn3cc(-c4ccn(C(C)C)n4)c(-c4ccccc4)c23)ncn1` [Compound 22, 6-(1-Isopropyl-1H-pyrazol-3-yl)-N-(6-methoxypyrimidin-4-yl)-2-(1-methyl-1H-imidazol-2-yl)-5-phenylpyrrolo[2,1-f][1,2,4]triazin-4-amine], the “% inh of Akt phosphorylation in Panc-1” value in the experiment on Akt phosphorylation is “A* (1-25% activation)”. The IC50 in experiment [1] (setting [2]) was in the range of 150 to 500 nM.

As for `COc1cc(Nc2nc(-c3nccn3C)nn3cc(-c4ccn(C(C)C)n4)c(C)c23)ccn1` [Compound 87, 6-(1-Isopropyl-1H-pyrazol-3-yl)-N-(2-methoxypyridin-4-yl)-5-methyl-2-(1-methyl-1H-imidazol-2-yl)pyrrolo[2,1-f][1,2,4]triazin-4-amine], the “% inh of Akt phosphorylation in Panc-1” value in the experiment with Akt phosphorylation is reported as “D* (85-100% activation)”. In addition, in experiment [1] (setting [2]), the IC50 is more than 1000 nM.

For the molecule `COCC1CCN(c2nc(-c3nccn3C)nn3cc(-c4ccn(C(C)C)n4)c(-c4ccccc4)c23)C1.Cl` (racemic) [Compound 19, rac 6-(1-Isopropyl-1H-pyrazol-3-yl)-4-(3-(methoxymethyl)pyrrolidin-1-yl)-2-(1-methyl-1H-imidazol-2-yl)-5-phenylpyrrolo[2,1-f][1,2,4]triazine hydrochloride salt], the “% inh of Akt phosphorylation in Panc-1” value with Akt phosphorylation is recorded as “D* (85-100% activation)”. Moreover, in experiment [1] (setting [2]), the IC50 was more than 1000 nM.

Regarding `COc1cnc(Nc2nc(-c3nccn3C)nn3cc(-c4ccn(C(C)C)n4)c(C)c23)cn1` [Compound 83, 6-(1-Isopropyl-1H-pyrazol-3-yl)-N-(5-methoxypyrazin-2-yl)-5-methyl-2-(1-methyl-1H-imidazol-2-yl)pyrrolo[2,1-f][1,2,4]triazin-4-amine], the “% inh of Akt phosphorylation in Panc-1” value in the experiment with Akt phosphorylation is “D* (85-100% activation)”. Further, in experiment [1] (setting [2]), the IC50 was 150 to 500 nM.

Turning to `Cc1c(-c2ccn(C(C)C)n2)cn2nc(-c3nccn3C)nc(Nc3ncc(C4CC4)o3)c12` [Compound 90, 5-Cyclopropyl-N-(6-(1-isopropyl-1H-pyrazol-3-yl)-5-methyl-2-(1-methyl-1H-imidazol-2-yl)pyrrolo[2,1-f][1,2,4]triazin-4-yl)oxazol-2-amine], the “% inh of Akt phosphorylation in Panc-1” value in the experiment on Akt phosphorylation is reported as “A* (1-25% activation)”. Also, the IC50 in experiment [1] (setting [2]) is more than 1000 nM.

Consider `Cc1c(-c2ccn(C(C)C)n2)cn2nc(-c3nccn3C)nc(Nc3nnc(C4CC4)[nH]3)c12` [Compound 81, N-(5-Cyclopropyl-4H-1,2,4-triazol-3-yl)-6-(1-isopropyl-1H-pyrazol-3-yl)-5-methyl-2-(1-methyl-1H-imidazol-2-yl)pyrrolo[2,1-f][1,2,4]triazin-4-amine], for which, in the experiment with Akt phosphorylation, the “% inh of Akt phosphorylation in Panc-1” value is “D* (85-100% activation)”. Also, the IC50 in experiment [1] (setting [2]) lay within 150 to 500 nM.

With `Cn1ccnc1-c1nc(O)c2c(-c3ccccc3)ccn2n1` [Compound 39, 2-(1-Methyl-1H-imidazol-2-yl)-5-phenylpyrrolo[2,1-f][1,2,4]triazin-4-ol], the “% inh of Akt phosphorylation in Panc-1” value in the experiment on Akt phosphorylation was 0 (0% inhibition). Moreover, the IC50 in experiment [1] (setting [2]) was more than 1000 nM.

With `COC1CCCN(c2nc(-c3nccn3C)nn3cc(-c4ccn(C(C)C)n4)c(C)c23)C1` (racemic) [Compound 4, rac 6-(1-Isopropyl-1H-pyrazol-3-yl)-5-methyl-2-(1-methyl-1H-imidazol-2-yl)-4-(3-(oxo-γ6-methyl)piperidin-1-yl)pyrrolo[2,1-f][1,2,4]triazine], in the experiment on Akt phosphorylation, the “% inh of Akt phosphorylation in Panc-1” value was 0 (0% inhibition). The IC50 in experiment [1] (setting [2]) is more than 1000 nM.

On to `Cc1c(-c2ccn(C(C)C)n2)cn2nc(-c3nccn3C)nc(Nc3cnn(C(C)C)n3)c12` [Compound 77, 6-(1-Isopropyl-1H-pyrazol-3-yl)-N-(2-isopropyl-2H-1,2,3-triazol-4-yl)-5-methyl-2-(1-methyl-1H-imidazol-2-yl)pyrrolo[2,1-f][1,2,4]triazin-4-amine], for which the “% inh of Akt phosphorylation in Panc-1” value in the experiment on Akt phosphorylation is listed as “D* (85-100% activation)”. Further, the IC50 in experiment [1] (setting [2]) is more than 1000 nM.
